# Assay results as given in PMC4764579, “Structural insights into the mechanism of activation of the TRPV1 channel by a membrane-bound tarantula toxin” (eLife, 2016).
# Positions of bridges follow the written chain, without caps; N, C: chain ends. Residues, ends and D or L forms follow the SMILES beside them.
# Experiment: Membrane partitioning of toxins into lipid vesicles measured using Trp fluorescence
# Type: physicochemical
# Settings: LUVs 1:1 POPC:POPG
# Source text: Motivated by the amphipathic character evident in the structure of DkTx, together with the placement of the toxin at the protein-lipid interface when bound to TRPV1, we investigated the interaction of DkTx and each of its two lobes with lipid membranes. For these experiments, we took advantage of the presence of a single conserved and solvent accessible Trp residue in loop 2 of both K1 and K2 (Figure 1C,D; W11 and W53), and used Trp fluorescence to monitor the partitioning of the toxin from the aqueous solution into the membrane environment ([Gupta et al., 2015]; [Ladokhin et al., 2000]; [Milescu et al., 2007]). When aqueous solutions of DkTx were excited at a wavelength of 280 nm, emission spectra with maxima at 353 nm were obtained (Figure 5A, left), as expected for Trp residues residing in such an environment. […] To quantify the extent of partitioning as a function of lipid concentration, we measured the relative fluorescence intensity in a blue-shifted region of the spectra (e.g. 320 nm) as a function of lipid concentration, and fit a partition function to the data to obtain a mole-fraction partition coefficient (Kx) of (2.3 ± 0.7) × 10^6, indicating an energetically favorable interaction of DkTx with lipid membranes (Figure 5A, right). This strong interaction of DkTx with membranes would facilitate binding of the toxin to the channel by increasing the local concentration of the toxin near the channel and by a reduction in the dimensionality of diffusion within the membrane ([Axelrod and Wang, 1994]).
# Figure 5. Interaction of DkTx and toxin constructs with lipid membranes measured using Trp fluorescence. (A–E, left panel) Trp emission spectra of DkTx (A), K1 without linker (B), K2 (C), bivalent K1 (K1K1) (D) and bivalent K2 (K2K2) (E) in the absence (black) and presence (blue, 1.6 mM for DkTx, 2 mM for K1-ΔL and K1K1, and 3 mM for K2 and K2K2) of lipid vesicles (1:1 mix of POPC:POPG). (A–E, right panel) Relative fluorescence intensity at 320 nm (F/F0) as a function of available lipid concentrations (60% of total lipid concentration). Smooth curves correspond to partition functions with Kx = (2.3 ± 0.7) × 10^6 and F/F0^max = 2.65 ± 0.08 for DkTx, Kx = (3.9 ± 1.1) × 10^5 and F/F0^max = 2.63 ± 0.07 for K1-ΔL, Kx = (2.0 ± 0.3) × 10^4 and F/F0^max = 3.71 ± 0.40 for K2, Kx = (2.9 ± 0.3) × 10^6 and F/F0^max = 2.47 ± 0.03 for K1K1 and Kx = (8.1 ± 2) × 10^5 and F/F0^max = 2.77 ± 0.55 for K2K2. Error bars correspond to SEM (n = 3 or 4). Partition functions for K1-ΔL and K2 are shown as dotted lines for comparison in D and E, respectively. (F) Comparisons of mole-fraction partition coefficient (Kx) of toxins. 7G-DkTx denotes a construct of DkTx whose linker (PYVPVTT) is replaced with 7 Gly residues. Error bars correspond to SEM (n = 3 or 4). DOI: http://dx.doi.org/10.7554/eLife.11273.020 Figure 5—figure supplement 1. Interaction of K1-K2 chimeras with lipid membranes measured using Trp fluorescence. (A–E, left panel) Trp emission spectra of K1(D1N) (A), K1(K2L2) (B), K1(K2L3) (C), K1(K2L4) (D) and K1(K2CT) (E) in the absence (black) and presence (blue, 2 mM) of lipid vesicles (1:1 mix of POPC:POPG). (A–D, right panel) Relative fluorescence intensity at 320 nm (F/F0) as a function of available lipid concentrations (60% of total lipid concentration). Smooth curves correspond to partition functions with Kx = (1.76 ± 0.06) × 10^6 and F/F0^max = 3.79 ± 0.02 for K1(D1N), Kx = (4.77 ± 1.39) × 10^5 and F/F0^max = 1.31 ± 0.02 for K1(K2L2), Kx = (1.02 ± 0.04) × 10^4 and F/F0^max = 3.69 ± 0.02 for K1(K2L3), and Kx = (0.90 ± 0.04) × 10^6 and F/F0^max = 2.59 ± 0.02 for K1(K2L4). Error bar corresponds to SEM (n = 3 or 4). Smooth curve of K1-ΔL was shown as a dotted line for comparison throughout the figures. (F) Comparisons of mole-fraction partition coefficient (Kx) of toxins. Error bars correspond to SEM (n = 3 or 4). DOI: http://dx.doi.org/10.7554/eLife.11273.021 [drawing 10] […]
smiles,measurement,setting,value
"CC[C@H](C)[C@@H]1NC(=O)[C@H](Cc2ccccc2)NC(=O)[C@H](C)NC(=O)[C@H](CC(C)C)NC(=O)[C@@H]2CCCN2C(=O)[C@@H]2CSSC[C@@H]3NC(=O)[C@H](C(C)C)NC(=O)[C@H](CCC(=O)O)NC(=O)CNC(=O)[C@H](CCC(=O)O)NC(=O)[C@H](CCCCN)NC(=O)[C@H](C)NC(=O)[C@@H](NC(=O)[C@@H](N)CC(N)=O)CSSC[C@H](NC(=O)[C@H](CSSC[C@@H](C(=O)N[C@@H](CCC(=O)O)C(=O)N[C@@H](CCCCN)C(=O)N[C@@H](Cc4ccc(O)cc4)C(=O)N[C@@H](CCCNC(=N)N)C(=O)O)NC(=O)[C@H](Cc4ccc(O)cc4)NC(=O)[C@@H]4CCCN4C1=O)NC(=O)[C@H](CCCCN)NC(=O)[C@H](CO)NC(=O)CNC(=O)[C@H](Cc1c[nH]c4ccccc14)NC(=O)CNC3=O)C(=O)N[C@@H](Cc1c[nH]cn1)C(=O)NCC(=O)N[C@@H](CC(C)C)C(=O)N[C@@H](CC(=O)O)C(=O)N2 [K2] (H-NCAKEGEVCGWGSKCCHGLDCPLAFIPYCEKYR-OH; disulfide 2-16, 9-21, 15-29 (inferred); N-terminus and C-terminus assumed)",F/F0^max (relative fluorescence intensity at 320 nm when partitioning is saturated),"Trp fluorescence, 10 mM HEPES, 1 mM EDTA, pH 7.0, fit of partition function, ± SEM, n = 3 or 4, SEM",3.71 ± 0.40
same,measured free energy of membrane partitioning (ΔG° = −RT lnKx),from measured Kx,-5.8 kcal/mol
